This is an account of results in PubChem BioAssay AID232 (DTP/NCI, 2004).

Values joined by “and” are separate entries in the source; they are usually repeats but may differ in a detail not shown here. Equal values may be shown once. Toxic doses and inconclusive results are not listed.

For the assay, the system named is Gardner 6C3HED lymphosarcoma ip, C3AKF1 mice, survival T/C. The assay is described as follows: NCI In Vivo Anticancer Drug Screen. Data for tumor model Lymphosarcoma Gardner 6C3HED (intraperitoneal) in C3AKF1 (CHKRF1) mice. As to conditions: endpoint: survival time, mean or median, schedule: Q01DX010 (ip), higher = longer survival. As to the method:
The antitumor activity of compounds was measured in mice bearing transplantable tumors. Survival or tumor size were measured and the results are expressed as the measurement made in the treated group (T) divided by the measurement made in the vehicle treated control group (C). The tumor model used in this assay is Lymphosarcoma Gardner 6C3HED (intraperitoneal) in C3AKF1 (CHKRF1) mice

[1] abbreviates: dose: 5.0 mg/kg/injection, vehicle: saline.
The mark [2] stands for this setting: dose: 10.0 mg/kg/injection, vehicle: saline.
Where [3] appears, read: dose: 31.3 mg/kg/injection, vehicle: saline.
[4] abbreviates: dose: 62.5 mg/kg/injection, vehicle: saline.
Setting [5] is: dose: 2.0 mg/kg/injection, vehicle: other.
Where [6] appears, read: dose: 4.0 mg/kg/injection, vehicle: other.

As for `CN(C)c1nc(N(C)C)nc(N(C)C)n1`, the T/C is, setting by setting: (dose: 18.8 mg/kg/injection, vehicle: saline) 104 % of control; (dose: 37.5 mg/kg/injection, vehicle: saline) 104 % of control; (dose: 75.0 mg/kg/injection, vehicle: saline) 95 % of control and 100 % of control; (dose: 150.0 mg/kg/injection, vehicle: saline) 100 % of control and 104 % of control.
On to `Nc1nc(=S)c2[nH]cnc2[nH]1`, for which the T/C runs as follows: (dose: 1.25 mg/kg/injection, vehicle: other) 95 % of control and 100 % of control; (dose: 1.25 mg/kg/injection, vehicle: saline) 120 % of control; (dose: 2.5 mg/kg/injection, vehicle: other) 104 % of control; (dose: 2.5 mg/kg/injection, vehicle: saline) 100 % of control and 110 % of control; (dose: 5.0 mg/kg/injection, vehicle: other) 113 % of control; under setting [1], 100 % of control and 105 % of control. Further, the T/C is, setting by setting: (dose: 10.0 mg/kg/injection, vehicle: other) 95 % of control; under setting [2], 100 % of control and 120 % of control.
As for `CCCCNc1ncnc2c1cnn2C`, the T/C is, setting by setting: under setting [3], 100 % of control and 104 % of control; under setting [4], 95 % of control and 100 % of control.
As to `CCOC(=O)NP(=O)(N1CC1(C)C)N1CC1(C)C` (stereo not given), the T/C is 103 % of control under setting [3] and 111 % of control under setting [4].
As for `O=C(Nc1ccc(C2=NCCCN2)cc1)c1ccc(C(=O)Nc2ccc(C3=NCCCN3)cc2)cc1`, the T/C is 227 % of control and 241 % of control (dose: 1.0 mg/kg/injection, vehicle: other); 300 % of control under setting [5]; 86 % of control under setting [6].
With `CN(C)c1ccc(Nc2c3ccccc3nc3ccccc23)cc1`, the T/C (dose: 36.0 mg/kg/injection, vehicle: saline) is 107 % of control; the T/C (dose: 54.0 mg/kg/injection, vehicle: saline) was 185 % of control; the T/C (dose: 80.0 mg/kg/injection, vehicle: saline) was 240 % of control; the T/C (dose: 120.0 mg/kg/injection, vehicle: saline) was 214 % of control.
As to `NC(Cc1ccc(N(CCCl)CCCl)cc1)C(=O)O` (stereo not given), the T/C by setting is: (dose: 8.0 mg/kg/injection, vehicle: saline) 160 % of control; under setting [2], 103 % of control; (dose: 16.0 mg/kg/injection, vehicle: saline) 100 % of control and 105 % of control.
In the case of `C[C@@H]1C[C@@H]([C@H](O)CC2CC(=O)NC(=O)C2)C(=O)[C@@H](C)C1`, the T/C reads like this: under setting [1], 95 % of control and 104 % of control; under setting [2], 90 % of control and 100 % of control; (dose: 20.0 mg/kg/injection, vehicle: saline) 91 % of control and 118 % of control.
In the case of `O=C(Nc1ccc(C2=NCCCN2)cc1)c1ccc(NC(=O)c2ccc(C3=NCCCN3)cc2)cc1`, the T/C was 183 % of control and 250 % of control under setting [5]; 220 % of control and 300 % of control under setting [6]; 177 % of control and 187 % of control (dose: 8.0 mg/kg/injection, vehicle: other).
Regarding `Nc1nc2n[nH]nc2c(=O)[nH]1`, the T/C runs as follows: (dose: 25.0 mg/kg/injection, vehicle: alkali diluted with saline) 115 % of control; (dose: 50.0 mg/kg/injection, vehicle: alkali diluted with saline) 100 % of control and 120 % of control.
Consider `CC(=O)Nc1ccc2nc3ccc(NC(C)=O)cc3[n+](-c3ccccc3)c2c1`, for which the T/C by setting is: (dose: 12.5 mg/kg/injection, vehicle: saline) 111 % of control; (dose: 25.0 mg/kg/injection, vehicle: saline) 107 % of control; (dose: 50.0 mg/kg/injection, vehicle: saline) 103 % of control; (dose: 100.0 mg/kg/injection, vehicle: saline) 103 % of control.
`CS(=O)(=O)OCCCCOS(C)(=O)=O`: the T/C is 100 % of control (dose: 1.56 mg/kg/injection, vehicle: saline); 100 % of control and 104 % of control (dose: 3.13 mg/kg/injection, vehicle: saline).
